The values that follow come from US9796741B2 (Achillion Pharmaceuticals, Inc., priority 2014, dated 2017).

The structures appear in SMILES notation. Bounds are passed on as bounds.

Human factor D, sequence (P00746 26-253): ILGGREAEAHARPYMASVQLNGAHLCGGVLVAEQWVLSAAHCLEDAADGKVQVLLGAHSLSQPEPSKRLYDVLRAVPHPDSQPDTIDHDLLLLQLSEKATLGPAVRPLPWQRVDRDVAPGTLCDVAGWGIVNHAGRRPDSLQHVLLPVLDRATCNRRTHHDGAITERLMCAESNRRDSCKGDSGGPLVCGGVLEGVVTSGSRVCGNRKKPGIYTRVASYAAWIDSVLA

The first assay addresses Human factor D (Homo sapiens (Human), UniProt P00746). The experiment in a line: Human Factor D Assay. It is filed as biochemical.
Conditions: not given
On the procedure: Human factor D (purified from human serum, Complement Technology, Inc.) at 80 nM final concentration is incubated with test compound at various concentrations for 5 minutes at room temperature in 50 mM Tris, 1M NaCl, pH 7.5. A synthetic substrate Z-L-Lys-SBzl and DTNB (Ellman's reagent) are added to final concentrations of 100 μM each. The increase in color is recorded at OD405 nm in a microplate in kinetic mode over 30 minutes with 30 second time points in a spectrofluorimeter. IC50 values are calculated by non-linear regression from the percentage of inhibition of complement factor D activity as a function of test compound concentration.
`NC(=O)c1nn(CC(=O)N2C[C@H](F)C[C@H]2C(=O)NCc2ccccn2)c2ccc(-c3ccnnc3)cc12` [Compound 139, 1-(2-((2S,4R)-4-fluoro-2-(pyridin-2-ylmethylcarbamoyl)pyrrolidin-1-yl)-2-oxoethyl)-5-(pyridazin-4-yl)-1H-indazole-3-carboxamide] gave a 50% inhibitory concentration (IC50) of 1 to 10 µM.

Still in this assay, the particulars now being: human factor D 80 nM, substrate Z-L-Lys-SBzl, DTNB.
Take `NC(=O)c1nn(CC(=O)N2[C@@H]3C[C@@H]3C[C@H]2C(=O)Nc2cccc(Br)n2)c2ccc(-c3cncnc3)cc12` [Compound 4]: the IC50 was less than 1 µM.

Compound `NC(=O)c1nn(CC(=O)N2C[C@H](F)C[C@H]2C(=O)Nc2cccnc2)c2ccc(-c3ccnnc3)cc12` [Compound 47, 1-(2-((2S,4R)-4-fluoro-2-(pyridin-3-ylcarbamoyl)pyrrolidin-1-yl)-2-oxoethyl)-5-(pyridazin-4-yl)-1H-indazole-3-carboxamide] yielded an IC50 of more than 10 µM.

Compound `CC(=O)c1cn(CC(=O)N2C[C@H](F)C[C@H]2C(=O)Nc2nc(-c3cccc(Cl)c3)ns2)c2ccc(-c3ccnnc3)cc12` [Compound 147, (2S,4R)-1-(2-(3-acetyl-5-(pyridazin-4-yl)-1H-indol-1-yl)acetyl)-N-(3-(3-chlorophenyl)-1,2,4-thiadiazol-5-yl)-4-fluoropyrrolidine-2-carboxamide] displayed an IC50 of more than 10 µM.

The compound `CC(=O)c1cn(CC(=O)N2C[C@H](F)C[C@H]2C(=O)Nc2cccc(O)n2)c2ccc(-c3ccnnc3)cc12` [Compound 144, (2S,4R)-1-(2-(3-acetyl-5-(pyridazin-4-yl)-1H-indol-1-yl)acetyl)-4-fluoro-N-(6-hydroxypyridin-2-yl)pyrrolidine-2-carboxamide] displayed an IC50 of more than 10 µM.

Compound `NC(=O)c1nn(CC(=O)N2C[C@H](F)C[C@H]2C(=O)Nc2cccc(-c3ccccc3Cl)c2F)c2ccc(-c3cncnc3)cc12` [Compound 2] had an IC50 of less than 1 µM.

Turning to `NC(=O)c1nn(CC(=O)N2[C@@H]3C[C@@H]3C[C@H]2C(=O)Nc2cccc(OC(F)(F)F)c2F)c2ccc(-c3cncnc3)cc12` [Compound 8, 1-(2-((1R,3S,5R)-3-(2-fluoro-3-(trifluoromethoxy)phenylcarbamoyl)-2-azabicyclo[3.1.0]hexan-2-yl)-2-oxoethyl)-5-(pyrimidin-5-yl)-1H-indazole-3-carboxamide], the half-maximal inhibitory concentration (IC50) was less than 1 µM.

`CC(=O)c1cn(CC(=O)N2C[C@H](F)C[C@H]2C(=O)Nc2ccc(CN)cc2)c2ccc(-c3ccnnc3)cc12` [Compound 85, (2S,4R)-1-(2-(3-acetyl-5-(pyridazin-4-yl)-1H-indol-1-yl)acetyl)-N-(4-(aminomethyl)phenyl)-4-fluoropyrrolidine-2-carboxamide] had an IC50 of more than 10 µM.

The compound `CC(=O)c1cn(CC(=O)N2C[C@H](F)C[C@H]2C(=O)Nc2cccc(Br)n2)c2ccc(-c3cncnc3)cc12` [Compound 14, (2S,4R)-1-(2-(3-acetyl-5-(pyrimidin-5-yl)-1H-indol-1-yl)acetyl)-N-(6-bromopyridin-2-yl)-4-fluoropyrrolidine-2-carboxamide] returned an IC50 of less than 1 µM.

`NC(=O)c1nn(CC(=O)N2C[C@H](F)C[C@H]2C(=O)Nc2cccc(OC(F)(F)F)c2F)c2ccc(-c3cncnc3)cc12` [Compound 9, 1-(2-((2S,4R)-4-fluoro-2-(2-fluoro-3-(trifluoromethoxy)phenylcarbamoyl)pyrrolidin-1-yl)-2-oxoethyl)-5-(pyrimidin-5-yl)-1H-indazole-3-carboxamide] returned a 50% inhibitory concentration (IC50) of less than 1 µM.

`NC(=O)c1nn(CC(=O)N2C[C@H](F)C[C@H]2C(=O)Nc2nc(-c3ccc4c(c3)CCCC4)cs2)c2ccc(-c3ccnnc3)cc12` [Compound 55, 1-(2-((2S,4R)-4-fluoro-2-(4-(5,6,7,8-tetrahydronaphthalen-2-yl)thiazol-2-ylcarbamoyl)pyrrolidin-1-yl)-2-oxoethyl)-5-(pyridazin-4-yl)-1H-indazole-3-carboxamide]: the IC50 was more than 10 µM.

Take `CC(=O)c1cn(CC(=O)N2C[C@H](F)C[C@H]2C(=O)Nc2cncc(Br)c2)c2ccc(-c3ccnnc3)cc12` [Compound 68, (2S,4R)-1-(2-(3-acetyl-5-(pyridazin-4-yl)-1H-indol-1-yl)acetyl)-N-(5-bromopyridin-3-yl)-4-fluoropyrrolidine-2-carboxamide]: the IC50 was less than 1 µM.

For `CC(=O)c1cn(CC(=O)N2C[C@H](F)C[C@H]2C(=O)NC2CCCc3nc(-c4ccc(F)cc4)sc32)c2ccc(-c3ccnnc3)cc12` (stereo partly drawn) [Compound 106, (2S,4R)-1-(2-(3-acetyl-5-(pyridazin-4-yl)-1H-indol-1-yl)acetyl)-4-fluoro-N-(2-(4-fluorophenyl)-4,5,6,7-tetrahydrobenzo[d]thiazol-7-yl) pyrrolidine-2-carboxamide], the IC50 is more than 10 µM.

In the case of `NC(=O)c1nn(CC(=O)N2C[C@H](F)C[C@H]2C(=O)Nc2cccc3c2CN(c2ccccn2)C3)c2ccc(-c3ccnnc3)cc12` [Compound 104, 1-(2-((2S,4R)-4-fluoro-2-(2-(pyridin-2-yl)isoindolin-4-ylcarbamoyl)pyrrolidin-1-yl)-2-oxoethyl)-5-(pyridazin-4-yl)-1H-indazole-3-carboxamide], the 50% inhibitory concentration (IC50) was more than 10 µM.

In turn, `NC(=O)c1nn(CC(=O)N2C[C@H](F)C[C@H]2C(=O)Nc2ccccc2N2CCOC2=O)c2ccc(-c3ccnnc3)cc12` [Compound 65, 1-(2-((2S,4R)-4-fluoro-2-(2-(2-oxooxazolidin-3-yl)phenylcarbamoyl)pyrrolidin-1-yl)-2-oxoethyl)-5-(pyridazin-4-yl)-1H-indazole-3-carboxamide] gave an IC50 of more than 10 µM.

`CNc1ncc(-c2ccc3c(c2)c(C(C)=O)cn3CC(=O)N2C[C@H](F)C[C@H]2C(=O)Nc2cccc(-c3ccccc3Cl)c2F)cn1` [Compound 188, (2S,4R)-1-(2-(3-acetyl-5-(2-(methylamino)pyrimidin-5-yl)-1H-indol-1-yl)acetyl)-N-(2′-chloro-2-fluorobiphenyl-3-yl)-4-fluoropyrrolidine-2-carboxamide] had an IC50 of less than 1 µM.

With `CC(=O)c1cn(CC(=O)N2C[C@H](F)C[C@H]2C(=O)N[C@@H]2CCC[C@H]2O)c2ccc(-c3ccnnc3)cc12` [Compound 143, (2S,4R)-1-(2-(3-acetyl-5-(pyridazin-4-yl)-1H-indol-1-yl)acetyl)-4-fluoro-N-((1R,2R)-2-hydroxycyclopentyl) pyrrolidine-2-carboxamide], the 50% inhibitory concentration (IC50) was more than 10 µM.

In turn, `CC(=O)c1cn(CC(=O)N2C[C@H](F)C[C@H]2C(=O)Nc2cccc(Br)n2)c2ccc(-c3ccc(C)nc3)cc12` [Compound 120, (2S,4R)-1-(2-(3-acetyl-5-(6-methylpyridin-3-yl)-1H-indol-1-yl)acetyl)-N-(6-bromopyridin-2-yl)-4-fluoropyrrolidine-2-carboxamide] gave an IC50 of less than 1 µM.

The compound `NC(=O)c1nn(CC(=O)N2C[C@H](F)C[C@H]2C(=O)Nc2cccc(OCc3ccccc3)n2)c2ccc(-c3ccnnc3)cc12` [Compound 73, 1-(2-((2S,4R)-2-(6-(benzyloxy)pyridin-2-ylcarbamoyl)-4-fluoropyrrolidin-1-yl)-2-oxoethyl)-5-(pyridazin-4-yl)-1H-indazole-3-carboxamide] showed a concentration for half-maximal inhibition (IC50) of more than 10 µM.

`COc1ncc(-c2ccc3c(c2)c(C(C)=O)cn3CC(=O)N2C[C@H](F)C[C@H]2C(=O)Nc2cccc(-c3ccccc3Cl)c2F)cn1` [Compound 27, (2S,4R)-1-(2-(3-acetyl-5-(2-methoxypyrimidin-5-yl)-1H-indol-1-yl)acetyl)-N-(2′-chloro-2-fluoro-[1,1′-biphenyl]-3-yl)-4-fluoropyrrolidine-2-carboxamide] had an IC50 of less than 1 µM.

For the compound `CC(=O)c1cn(CC(=O)N2C[C@H](F)C[C@H]2C(=O)Nc2nnc(-c3ccc(Cl)c(Cl)c3)s2)c2ccc(-c3ccnnc3)cc12` [Compound 117, (2S,4R)-1-(2-(3-acetyl-5-(pyridazin-4-yl)-1H-indol-1-yl)acetyl)-N-(5-(3,4-dichlorophenyl)-1,3,4-thiadiazol-2-yl)-4-fluoropyrrolidine-2-carboxamide], the concentration for half-maximal inhibition (IC50) was more than 10 µM.

In turn, `CC(=O)c1cn(CC(=O)N2C[C@H](F)C[C@H]2C(=O)Nc2cccc(Br)n2)c2ccc(-c3cnc(C#N)nc3)cc12` [Compound 82, (2S,4R)-1-(2-(3-acetyl-5-(2-cyanopyrimidin-5-yl)-1H-indol-1-yl)acetyl)-N-(6-bromopyridin-2-yl)-4-fluoropyrrolidine-2-carboxamide] registered a half-maximal inhibitory concentration (IC50) of less than 1 µM.

In turn, `NCc1ccc(NC(=O)[C@@H]2C[C@@H](F)CN2C(=O)Cn2nc(C(N)=O)c3cc(-c4ccnnc4)ccc32)cc1` [Compound 70, 1-(2-((2S,4R)-2-(4-(aminomethyl)phenylcarbamoyl)-4-fluoropyrrolidin-1-yl)-2-oxoethyl)-5-(pyridazin-4-yl)-1H-indazole-3-carboxamide] gave an IC50 of more than 10 µM.

Take `Cc1cc(NC(=O)[C@@H]2C[C@@H](F)CN2C(=O)Cn2nc(C(N)=O)c3cc(-c4ccnnc4)ccc32)n(-c2ccccc2F)n1` [Compound 158, 1-(2-((2S,4R)-4-fluoro-2-(1-(2-fluorophenyl)-3-methyl-1H-pyrazol-5-ylcarbamoyl)pyrrolidin-1-yl)-2-oxoethyl)-5-(pyridazin-4-yl)-1H-indazole-3-carboxamide]: the concentration for half-maximal inhibition (IC50) was more than 10 µM.

For the compound `Cn1cnnc1-c1ccccc1NC(=O)[C@@H]1C[C@@H](F)CN1C(=O)Cn1nc(C(N)=O)c2cc(-c3ccnnc3)ccc21` [Compound 98, 1-(2-((2S,4R)-4-fluoro-2-(2-(4-methyl-4H-1,2,4-triazol-3-yl)phenylcarbamoyl)pyrrolidin-1-yl)-2-oxoethyl)-5-(pyridazin-4-yl)-1H-indazole-3-carboxamide], the half-maximal inhibitory concentration (IC50) was more than 10 µM.

In turn, `CC1(C)Cc2ccc(NC(=O)[C@@H]3C[C@@H](F)CN3C(=O)Cn3nc(C(N)=O)c4cc(-c5ccnnc5)ccc43)cc2O1` [Compound 76, 1-(2-((2S,4R)-2-(2,2-dimethyl-2,3-dihydrobenzofuran-6-ylcarbamoyl)-4-fluoropyrrolidin-1-yl)-2-oxoethyl)-5-(pyridazin-4-yl)-1H-indazole-3-carboxamide] came in with an IC50 of less than 1 µM.

Usually IC50 stands for the concentration that inhibits the measured activity by half. Read a low IC50 as inhibition by little substance.
